We go through four compounds from US20250290915A1, “METHOD FOR PREDICTING RESPONSIVENESS TO THERAPY” (CANCERTAIN LIMITED, priority 2022, published 2025).

The test system of assay [1] is Circulating tumour cells (CTCs) from a patient with GI cancer (Cholangio Carcinoma, stage 4). Nature of the assay: Drug response score assay on blood sample, Example 9. The class given is cell-based, human. Also noted: key to Drug response score from blood sample, conc. 1 / Drug response score from blood sample, conc. 2 / Drug response score from blood sample, conc. 3 / Drug response score from blood sample, conc. 4: normalized drug response metric per Gupta et al. 2020. Particulars: for effectiveness on Circulating Tumour Cells under laboratory conditions: GI cancer (Cholangio Carcinoma) blood sample; for Drug response score from blood sample, conc. 1: conc. 1 of each drug as in Table 27; for Drug response score from blood sample, conc. 1 / Drug response score from blood sample, conc. 2 / Drug response score from blood sample, conc. 3 / Drug response score from blood sample, conc. 4: t96h; for Drug response score from blood sample, conc. 2: conc. 2 of each drug as in Table 27; for Drug response score from blood sample, conc. 3: conc. 3 of each drug as in Table 27; for Drug response score from blood sample, conc. 4: conc. 4 of each drug as in Table 27; for Drug sensitivity as calculated by the assay, Blood: interpretation based on Drug Response Scores; for Drug response score from blood sample, conc. 1 / Drug response score from blood sample, conc. 2 / Drug response score from blood sample, conc. 3 / Drug response score from blood sample, conc. 4 / Drug sensitivity as calculated by the assay, Blood: blood sample. The method, then: CD45^+ cells and circulating tumour cells (CTCs) were isolated from a blood sample provided by each subject.
CD45 separation was performed by adding human CD45 microbeads (50 μl/ml blood), incubating for 15 minutes at 4° C. and then processing using an AutoMACS machine. This separates the blood sample into CD45^+ and CD45^−cells in 2 separate falcons. The falcon tubes are then centrifuged at 1200 rpm for 5 minutes.
The supernatant was removed from the CD45^+falcon tube, and the cells resuspended in DMEM with 2 μl Cell Tox, 2 μl MT and 2 μl MT. 20 μl of the resuspended CD45^+ cells was then plated in each well which will contain an immunotherapy treatment.
The supernatant was removed from the CD45^−falcon tube, and the CD45^−cells contacted with 100 μl of FcR block and 100 μl of CD326 (EpCAM) MicroBeads, followed by incubation at […] 4° C. for 30 minutes. The CD45^−cells were then processed using an AutoMACS machine to separate the EpCAM positive and negative cells into 2 separate falcon tubes. The EpCAM-cells were discarded. The supernatant was removed from the EpCAM^+ cells, and the cells resuspended in DMEM with 2 μl Cell Tox, 2 μl MT and 2 μl MT. 20 μl of the resuspended pellet was then added to all sample wells excluding a blank. After all wells are added to, a cell count was conducted on the […] to determine the number of circulating tumour cells (CTCs).
(§1) The different cell types were each divided equally into populations, depending on the number of drugs/concentrations to be tested and plated on a cell-culture plate pre-coated with a scaffold of polycaprolactone (PCL) electrospun fibres and incubated at 37° C., 5% CO2, for 5 to (typically 10) minutes to facilitate cell attachment. After attachment, an initial imaging step was carried out using the RealTime-Glo™ MT assay from Promega (Catalogue No. G9711)) and the CellTox™ Green Cytotoxicity Assay (Promega, Catalogue No. G8741), carried out according to manufacturer's instructions. Following this initial imagining, the immunotherapeutic and/or chemotherapeutic agents were added to the cell populations as indicated below. After 10 minutes, the imagining step was repeated. The cell populations were then incubated at 37° C., 5% CO2 for 48 hours. The imaging step was then repeated. The cell populations were then re-dosed with the same immunotherapeutic and/or chemotherapeutic agents as indicated below, and incubated at 37° C., 5% CO2 for a further 48 hours. After this second 48 hour incubation, the imagining step was repeated for a final time.
At the end of this culture period, dose response scores were calculated using a normalized drug response metric as described in Gupta et al. (Communications Biology volume 3, Article number: 42 (2020), https://doi.org/10.1038/s42003-020-0765-z). The start readout for a given immunotherapeutic or chemotherapeutic agent at a given concentration was the to readout for said immunotherapeutic or chemotherapeutic agent at a specified concentration. The end readout for a given immunotherapeutic or chemotherapeutic agent at a given concentration was the final timepoint reading (t96h) for said immunotherapeutic or chemotherapeutic agent at a specified concentration.
The positive control start readout for a given drug/concentration was the to readout for the corresponding drug at a specified concentration. The positive control end readout for the corresponding drug at a specified concentration was the final timepoint reading (t96h) for the corresponding blank well.
The negative control start and end readouts for a given immunotherapeutic or chemotherapeutic agent at a given concentration were the to and final timepoint reading (t96h) respectively for blank cell or blank immuno cell well respectively.
The sensitivity or resistance of a subject's cancer to a given immunotherapeutic or chemotherapeutic agent was determined based on the calculated drug response score as shown in Table 2. […]

In assay [2] the test system is Cancer Cells from tissue sample (CSCs, tumour marker+ cells) of a patient with GI cancer (Cholangio Carcinoma, stage 4). Nature of the assay: Drug response score assay on tissue sample, Example 9. It is filed as cell-based, human. As to conditions: for Drug response score, conc. 1 / Drug response score, conc. 2 / Drug response score, conc. 3 / Drug response score, conc. 4 / Drug sensitivity as calculated by the assay, Tissue: tissue sample; for Drug response score, conc. 1: conc. 1 per Table 27B: Pem 20, Niv 20, Atez 100, Pacli 0.05, Irino 5, Beva 1 μg/ml, Len 50, 5-FU 250 ng/ml; for Drug response score, conc. 2: conc. 2 per Table 27B: Pem 40, Niv 40, Atez 200, Pacli 0.1, Irino 10, Beva 2 μg/ml, Len 100, 5-FU 500 ng/ml; for Drug response score, conc. 3: conc. 3 per Table 27B: Pem 100, Niv 80, Atez 400, Pacli 0.2, Irino 25, Beva 4 μg/ml, Len 200, 5-FU 1000 ng/ml; for Drug response score, conc. 4: conc. 4 per Table 27B: Pem 160, Niv 160, Atez 800, Pacli 1, Irino 50, Beva 8 μg/ml, Len 400, 5-FU 2000 ng/ml; for effectiveness on Cancer Cells from tissue sample under laboratory conditions: GI cancer (Cholangio Carcinoma) tissue sample; for Drug sensitivity as calculated by the assay, Tissue: interpretation based on Drug Response Scores. The method, then:
Where a tissue sample was provided by each subject, cancer stem cells (CSCs, CD133^+), were isolated from said sample. Tumour marker cells were further isolated from each tissue sample. The remaining cells were designated tumour marker^+ cells.
First, disaggregation of the tissue samples was carried out. Disaggregation was dependent on the size of the tissue sample and the method of retrieval: • EBUS (Endobronchial Ultrasound Scan and Biopsy)—very small fragments of tissue in solution-spun at 1200 rpm for 5 minutes to collect tissue pellet • Bronchoscopy-larger fragments with larger amount of blood vessels • Broncho-lavage-similar to EBUS, spun at 1200 rpm for 5 minutes to collet tissue pellet
Once a pellet of tissue obtained, DMEM added to the tissue pellet and the material forced through a […] Smart strainer. Once a cell suspension was achieved, this was spun at 1200 rpm for 5 minutes and the supernatant removed. The cells were then resuspended to a volume of 60 μl.
20 μl of FcR block and 20 μl of CD133 microbeads were added to the resuspended cells, followed by incubation for 15 minutes at 4° C. The cells were then processed using an AutoMACS machine. This separates the […] into CD133^+ and CD133^− cells in 2 separate falcons. The falcon tubes are then centrifuged at 1200 rpm for 5 minutes.
The supernatant was removed from the CD133+falcon tube, and the cells resuspended in DMEM with 2 μl Cell Tox, 2 μl MT and 2 μl MT. 20 μl of the resuspended […] was then plated in each well which will contain an immunotherapy treatment.
The supernatant was removed from the CD133^− falcon tube, and the CD133^− cells contacted with 40 μl of a tumour separation microbeads cocktail containing microbeads bound to anti-CD31, anti-CD45, anti-Glycophorin-A (Gly-A) and an anti-fibroblast antibody.
This cocktail is used to separate out tumour marker cells using MACS, by separating out CD31^+, CD45^+ and Gly-A^+ cells. In addition, anti-fibroblast antibody-labelled beads are also used. The cocktail is added to the CD133^− falcon tube, followed by incubation for 15 minutes at 4° C. MACS is carried out using an AutoMACS machine. This cells which are not bound by the CD31, CD45, Gly-A and anti-fibroblast antibody beads are the tumour marker^+ cells.
as §1
At the end of this culture period, dose response scores were calculated using a normalized drug response metric as described in Gupta et al. (Communications Biology volume 3, Article number: 42 (2020), https://doi.org/10.1038/s42003-020-0765-z). The start readout for a given immunotherapeutic or chemotherapeutic agent at a given concentration was the to readout for said immunotherapeutic or chemotherapeutic agent at a specified concentration. […]

Regarding `CC(=O)O[C@H]1C(=O)[C@@]2(C)[C@H]([C@H](OC(=O)c3ccccc3)[C@]3(O)C[C@H](OC(=O)[C@H](O)[C@@H](NC(=O)c4ccccc4)c4ccccc4)C(C)=C1C3(C)C)[C@]1(OC(C)=O)CO[C@@H]1C[C@@H]2O` [Paclitaxel], in assay [1], the “effectiveness on Circulating Tumour Cells under laboratory conditions” value was “S+”; the “Drug response score from blood sample, conc. 1” value came out at 0.2346; the “Drug response score from blood sample, conc. 2” value turned out to be 0.5329; the “Drug response score from blood sample, conc. 3” value was 0.5298. In assay [1], the “Drug response score from blood sample, conc. 4” value came out at 0.756. In addition, in assay [2], the “Drug response score, conc. 1” value came out at 0.9365; the “Drug response score, conc. 2” value is given as 0.9526; the “Drug response score, conc. 3” value was 0.9072; the “Drug response score, conc. 4” value was determined as 0.9683.

Turning to Pembrolizumab, in assay [1], the “effectiveness on Circulating Tumour Cells under laboratory conditions” value is “S+”; the “Drug response score from blood sample, conc. 1” value came to 0.00068; the “Drug response score from blood sample, conc. 2” value is 0.1572; the “Drug response score from blood sample, conc. 3” value stood at 1.041. Moreover, in assay [1], the “Drug response score from blood sample, conc. 4” value is reported as 0.6989 and the “Drug sensitivity as calculated by the assay, Blood” value is reported as “S+”. Further, in assay [2], the “effectiveness on Cancer Cells from tissue sample under laboratory conditions” value (“effectiveness on Cancer Cells” below) is listed as “S+”; the “Drug sensitivity as calculated by the assay, Tissue” value is recorded as “S+”; the “Drug response score, conc. 1” value is reported as 0.9764; the “Drug response score, conc. 2” value is given as 0.9717. In assay [2], the “Drug response score, conc. 3” value is given as 0.9672 and the “Drug response score, conc. 4” value came out at 0.8354.

On to Nivolumab, for which, in assay [1], the “Drug response score from blood sample, conc. 1” value was 1; the “Drug response score from blood sample, conc. 2” value was found to be 0.2783; the “Drug response score from blood sample, conc. 3” value came to 1.061; the “Drug response score from blood sample, conc. 4” value was 1.046. For the same compound, in assay [2], the “effectiveness on Cancer Cells” value is “S+”; the “Drug sensitivity as calculated by the assay, Tissue” value was “S+”; the “Drug response score, conc. 1” value is listed as 0.9424; the “Drug response score, conc. 2” value is 0.9636. For the same compound, in assay [2], the “Drug response score, conc. 3” value stood at 0.9018 and the “Drug response score, conc. 4” value amounted to 0.6833.

As for `COc1cc2nccc(Oc3ccc(NC(=O)NC4CC4)c(Cl)c3)c2cc1C(N)=O` [Lenvatinib], in assay [1], the “effectiveness on Circulating Tumour Cells under laboratory conditions” value was “S+”; the “Drug response score from blood sample, conc. 1” value came out at 0.2851; the “Drug response score from blood sample, conc. 2” value was 0.3155; the “Drug response score from blood sample, conc. 3” value came out at 0.4097. Besides, in assay [1], the “Drug response score from blood sample, conc. 4” value is 0.6214 and the “Drug sensitivity as calculated by the assay, Blood” value was “S+”. For the same compound, in assay [2], the “effectiveness on Cancer Cells” value was “S+”; the “Drug sensitivity as calculated by the assay, Tissue” value was “S+”; the “Drug response score, conc. 1” value is given as 0.9082; the “Drug response score, conc. 2” value is on record as 0.9132. Moreover, in assay [2], the “Drug response score, conc. 3” value turned out to be 0.8739 and the “Drug response score, conc. 4” value was 0.9434.
